Test results published in patent publication US4454139A, “α2 -Adrenoceptor antagonistic benzoquinolizines” (John Wyeth & Brother, Limited, priority 1980, dated 1984).

What was measured:
[1] = target: T1, α2 (presynaptic α)-adrenoceptor (Rattus norvegicus, UniProt P22909); experiment: α2-adrenoceptor antagonistic activity on the rat field stimulated vas deferens preparation (clonidine agonist); type: cell-based; conditions: clonidine as agonist, Arunlakshana & Schild; for Kb: read-out: pA2 (α2) (converted); for pA2 (α2): 90 min
T1 construct: from tissue; host or cells: rat vas deferens (desheathed, field stimulated)
T1 sequence (P22909 1-465): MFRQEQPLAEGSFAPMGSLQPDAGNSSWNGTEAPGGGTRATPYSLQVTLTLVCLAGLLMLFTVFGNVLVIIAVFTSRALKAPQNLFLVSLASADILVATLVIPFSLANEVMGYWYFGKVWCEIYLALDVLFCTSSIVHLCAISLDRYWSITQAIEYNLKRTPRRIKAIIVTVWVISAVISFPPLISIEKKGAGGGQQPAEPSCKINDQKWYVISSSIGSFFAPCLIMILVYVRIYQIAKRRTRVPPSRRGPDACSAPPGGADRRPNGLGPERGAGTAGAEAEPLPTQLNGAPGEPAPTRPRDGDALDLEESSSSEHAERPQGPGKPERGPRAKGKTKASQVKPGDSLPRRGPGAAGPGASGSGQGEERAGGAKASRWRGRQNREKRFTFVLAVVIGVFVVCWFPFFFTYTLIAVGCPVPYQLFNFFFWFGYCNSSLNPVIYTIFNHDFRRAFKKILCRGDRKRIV
Description: The compounds of the invention were tested for their α2 -adrenoceptor antagonistic activity on the rat field stimulated vas deferens preparation using a modification of the method of Drew, Eur.J.Pharmac., 1977, 42, 123-130. The procedure is described below. […] from sexually mature rats were suspended in a 6 ml organ bath in Krebs solution at 37° and bubbled with 5% CO2 in oxygen. Platinum ring electrodes were positioned above and below the tissue for field stimulation, the stimulus parameters being 0.1 Hz 1 ms pulse width at supramaximal voltage. Twitch responses were recorded isotonically with a 0.5 g loading. […] After washing out clonidine, the twitch response quickly recovered and an antagonist was then introduced into the Krebs reservoir. Clonidine concentration-response curves were repeated 90 min after introduction of the antagonist. The concentration of clonidine producing 50% inhibition of twitch before and after introduction of antagonist were obtained and the dose-ratio for clonidine was calculated. Various concentrations of the antagonists were used. […] Chemother., 1959, 14, 48-58 and the values of pA2 and slope were calculated.

[2] = target: T2, postsynaptic (α1) α-adrenoceptor (Rattus norvegicus, UniProt P43140); experiment: postsynaptic (α1) antagonistic activity on the isolated anococcygeus muscle of the rat (phenylephrine or methoxamine agonist); type: cell-based; conditions: rat anococcygeus muscle; phenylephrine or methoxamine as agonist; α1; read-out: pA2 (postsynaptic) (converted)
T2 construct: the isolated anococcygeus muscle of the rat; from tissue; host or cells: rat anococcygeus muscle (male rats, 250-360 g)
T2 sequence (P43140 1-466): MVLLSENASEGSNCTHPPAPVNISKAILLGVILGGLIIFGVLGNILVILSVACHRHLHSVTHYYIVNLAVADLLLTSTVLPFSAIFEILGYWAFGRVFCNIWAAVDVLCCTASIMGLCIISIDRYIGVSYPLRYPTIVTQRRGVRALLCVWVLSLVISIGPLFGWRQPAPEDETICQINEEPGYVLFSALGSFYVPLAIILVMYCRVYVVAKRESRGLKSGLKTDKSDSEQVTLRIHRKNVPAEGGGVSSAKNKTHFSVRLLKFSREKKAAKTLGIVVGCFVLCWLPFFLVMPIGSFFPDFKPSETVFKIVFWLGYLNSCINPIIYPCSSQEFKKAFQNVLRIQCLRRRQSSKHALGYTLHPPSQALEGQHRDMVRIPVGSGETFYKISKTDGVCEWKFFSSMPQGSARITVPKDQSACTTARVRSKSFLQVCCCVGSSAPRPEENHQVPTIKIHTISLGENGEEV
From the text: (§1) The postsynaptic(α1)antagonistic activity can be evaluated by a number of different methods. One method involves assessing the activity on the isolated anococcygeus muscle of the rat. The method is based on that of Gillespie, Br.J.Pharmac., 1972, 45, 404-416. In the procedure male rats (250-360 g) are killed by a blow on the head and bled. The two anococcygeus muscles are removed from their position in the midline of the pelvic cavity, where they arise from the upper coccygeal vertebrae. The muscles are suspended in 5 ml organ baths in Krebs solution containing 10^-4 M ascorbic acid, to prevent drug oxidation. The tissues are gassed with a 95% oxygen, 5% CO2 mixture and maintained at 37°. Longitudinal muscle contractions are recorded using isotonic transducers. Cumulative dose response curves are then obtained to phenylephrine or in some cases methoxamine, both agents being postsynaptic alpha adrenoceptor agonists. The concentration range of phenylephrine or methoxamine used is 0.02 to 0.8 μg.ml^-1. The agonist is then washed from the bath and the test drug added to the bathing medium at a concentration of 10^-6 M. After 30 min. equilibration with the test drug a further agonist dose response curve is obtained. The washing, equilibration and agonists dosing procedures are then repeated using 10^-5 M and 10^-4 M solutions of the test drug. Estimates of the pA2 value for the test drug as an antagonist of phenylephrine or methoxamine were made from the agonist dose-ratios using the method of Arunlakshana & Schild, Br.J.Pharmac.Chemother., 1959, 14, 48-58.

[3] = system: postsynaptic (α1) α-adrenoceptor; experiment: as above; type: cell-based
From the text: as §1

[4] = system: hyperglycaemia induced by the α2 agonist clonidine; experiment: inhibition of clonidine-induced hyperglycaemia in rats; type: in vivo, rat; conditions: 10 mg/kg, clonidine 15 μg/kg subcutaneous
human blood platelets = experiment: inhibition of adrenaline-induced aggregation in vitro of human blood platelets; type: cell-based
[5] = system: rats rendered hypertensive by implantation of desoxycorticosterone acetate; experiment: hypotensive activity in rats rendered hypertensive by implantation of desoxycorticosterone acetate; type: in vivo, rat

Structure (SMILES)	Kb [1] [nM]	Kb [2] [nM]	α2 selectivity [3]	inhibition of the hyperglycaemia induced by clonidine [4]	inhibition of the aggregation in vitro of human blood platelets induced by adrenaline (human blood platelets)	hypotensive activity [5]	pA2 (α2) [1]
CCCS(=O)(=O)N[C@@H]1CCN2CCc3ccccc3[C@@H]2C1 (relative stereo) [2β-(n-propanesulphonamido-1,3,4,6,7,11bα-hexahydro-2H--benzo[a]quinolizine, reference compound]	316						
CN([C@@H]1CCN2CCc3ccccc3[C@@H]2C1)S(C)(=O)=O (relative stereo) [A, N-Methyl-N-(1,3,4,6,7,11bα-hexahydro-2H-benzo[a]quinolizin-2β-yl)methanesulphonamide]	20	1120	56	inhibited the hyperglycaemia	inhibit the aggregation	do not possess substantial hypotensive activity	
CCS(=O)(=O)N(C)[C@@H]1CCN2CCc3ccccc3[C@@H]2C1 (relative stereo) [B, N-Methyl-N-(1,3,4,6,7,11bα-hexahydro-2H-benzo[a]quinolizin-2β-yl)ethanesulphonamide]	20	676	34				
CCCS(=O)(=O)N(C)[C@@H]1CCN2CCc3ccccc3[C@@H]2C1 (relative stereo) [C, N-Methyl-N-(1,3,4,6,7,11bα-hexahydro-2H-benzo[a]quinolizin-2β-yl)propan-1-sulphonamide]	5.01	724	144		inhibit the aggregation		
CN([C@@H]1CCN2CCc3ccccc3[C@@H]2C1)S(=O)(=O)c1ccccc1 (relative stereo) [D, N-methyl-N-(1,3,4,6,7,11bα-hexahydro-2H-benzo[a]quinolizin-2β-yl)benzenesulphonamide]	3.98	457	102	inhibited the hyperglycaemia			
CCN([C@@H]1CCN2CCc3ccccc3[C@@H]2C1)S(C)(=O)=O (relative stereo) [E, N--Ethyl-N--(1,3,4,6,7,11bα-hexahydro-2H--benzo[a]quinolizin-2-62-yl)methanesulphonamide]	15.8	562	35.5				
Cc1ccc(S(=O)(=O)N(C)[C@@H]2CCN3CCc4ccccc4[C@@H]3C2)cc1 (relative stereo) [F, N-Methyl-N-(1,3,4,6,7,11bα-hexahydro-2H-benzo[a]quinolizin-2β-yl)toluene-4-sulphonamide]	7.94	468	59				
COc1ccc(S(=O)(=O)N(C)[C@@H]2CCN3CCc4ccccc4[C@@H]3C2)cc1 (relative stereo) [G, N-Methyl-N-(1,3,4,6,7,11bα-hexahydro-2H-benzo[a]quinolizin-2β-yl)-4-methoxybenzenesulphonamide]	7.94	316	40				
CN([C@@H]1CCN2CCc3ccccc3[C@@H]2C1)S(=O)(=O)c1ccc(Cl)cc1 (relative stereo) [H, N-Methyl-N-(1,3,4,6,7,11bα-hexahydro-2H-benzo[a]quinolizin-2β-yl)-4-chlorobenzenesulphonamide]	25.1	813	32				
Cc1ccccc1S(=O)(=O)N(C)[C@@H]1CCN2CCc3ccccc3[C@@H]2C1 (relative stereo) [I, N-Methyl-N-(1,3,4,6,7,11bα-hexahydro-2H-benzo[a]quinolizin-2β-yl)-2-methylbenzenesulphonamide]	12.6	537	40				
CN([C@@H]1CCN2CCc3ccccc3[C@@H]2C1)S(=O)(=O)c1ccc(Cl)c(Cl)c1 (relative stereo) [J, N-Methyl-N-(1,3,4,6,7,11bα-hexahydro-2H-benzo[a]quinolizin-2β-yl)-3,4-dichlorobenzenesulphonamide]	31.6	3310	93				
CCCCS(=O)(=O)N(C)[C@@H]1CCN2CCc3ccccc3[C@@H]2C1 (relative stereo) [K, N-Methyl-N-(1,3,4,6,7,11bα-hexahydro-2H-benzo[a]quinolizin-2β-yl)-n-butanesulphonamide]	12.6	251	19				
CC(C)CS(=O)(=O)N(C)[C@@H]1CCN2CCc3ccccc3[C@@H]2C1 (relative stereo) [L, N-Methyl-N-(1,3,4,6,7,11bα-hexahydro-2H-benzo[a]quinolizin-2β-yl)-isobutanesulphonamide]	3.16	324	93	inhibited the hyperglycaemia			
CCCN([C@@H]1CCN2CCc3ccccc3[C@@H]2C1)S(C)(=O)=O (relative stereo) [N--(n-Propyl)-N--(1,3,4,6,7,11bα-hexahydro-2H--benzo[a]quinolizin-2β-yl)methanesulphonamide, reference compound]	100						
COc1cc2c(cc1OC)[C@@H]1C[C@H](N(C)S(C)(=O)=O)CCN1CC2 (relative stereo) [N--methyl-N--(9,10-dimethoxy-1,3,4,6,7,11bα-hexahydro-2H--benzo[a]quinolizin-2β-yl)-methanesulphonamide, reference compound]	158						
O=C(Nc1ccccc1)NC1CCN2CCc3ccccc3C2C1 (centres unmarked) [1-(1,3,4,6,7,11b-hexahydro-2H benzo[a]quinolizin-2yl)-3-phenyl urea, reference compound]	3980						
S=C(Nc1ccccc1)NC1CCN2CCc3ccccc3C2C1 (centres unmarked) [1-(1,3,4,6,7,11b-hexahydro-2H--benzo[a]quinolizin-2yl)-3-phenylthiourea, reference compound]	2510						
CS(=O)(=O)NC1CCN2CCc3ccccc3C2C1 (centres unmarked) [2-methanesulphonamido-1,3,4,6,7,11b-hexahydro-2H--benzo[a]quinolizine, reference compound]	126						
O=S(=O)(NC1CCN2CCc3ccccc3C2C1)c1ccccc1 (stereo not drawn) [2β-phenylsulphonamido-1,3,4,6,7,11b-hexahydro-2H--benzo[a]quinolizine, reference compound]							6.4
CCS(=O)(=O)NC1CCN2CCc3ccccc3C2C1 (centres unmarked) [2βethanesulphonamido-1,3,4,6,7,11b-hexahydro-2H--benzo[a]quinolizine, reference compound]							5.3
